Read-outs that look alike come from different tables or passages of the source.
Key:
UGTs in HLMs = test: Inhibition of glucuronidation reaction by chemical inhibitors in HLMs; type: in vitro ADME, human; conditions: vs. control without inhibitor
Protocol: To obtain suitable incubation conditions, we first evaluated the linearity of metabolite formation at different times (10-60 min), the UDPGA concentrations (0.5-5 mM), and the microsome protein concentrations in HLMs (0.2-2 mg/mL). The final incubation medium used in the experiment contained MgCl2 (10 mM), microsomes (0.5 mg/mL), 1,4-lactone monohydrate (5 mM), alamethicin ([…]), UDPGA (1 mM), and different concentrations of tectorigenin or […] (1-300 μM) in Tris-HCl buffer (50 mM, pH 7.4). The mixture was incubated at 37 °C for 30 min; then, the reaction was stopped by adding ice-cold methanol. After the mixtures were centrifuged (17,000 rpm, 10 min), and the supernatant was analyzed by HPLC. Michaelis-Menten parameters (Vmax and Km) were determined on the basis of the nonlinear regression of the plot of the substrate concentration vs. rate of metabolite formation. Several well-characterized UGT substrates were used as “inhibitors” to examine the involvement of UGTs in the glucuronidation of tectorigenin or […]. To reduce nonspecific inhibition, the concentration of each inhibitor was determined according to the available literature, namely, 100 μM silibinin for UGT1A1 [31], 50 μM trifluoperazine for UGT1A4 [32], 100 μM 1-naphthol for UGT1A6/1A9 [18, 33], and 500 μM fluconazole for UGT2B7 [34]. A reaction without inhibitors was carried out in parallel as a control.

[1] = test system: pooled human liver microsomes (HLMs); test: Glucuronidation kinetics of tectorigenin and irigenin in HLMs; type: in vitro ADME; conditions: irigenin glucuronidation in HLMs
Protocol: To obtain suitable incubation conditions, we first evaluated the linearity of metabolite formation at different times (10–60 min), the UDPGA concentrations (0.5–5 mM), and the microsome protein concentrations in HLMs (0.2–2 mg/mL). The final incubation medium used in the experiment contained MgCl2 (10 mM), microsomes (0.5 mg/mL), 1,4-lactone monohydrate (5 mM), alamethicin ([…]), UDPGA (1 mM), and different concentrations of tectorigenin or irigenin (1–300 μM) in Tris-HCl buffer (50 mM, pH 7.4). The mixture was incubated at 37 °C for 30 min; then, the reaction was stopped by adding ice-cold methanol. After the mixtures were centrifuged (17,000 rpm, 10 min), and the supernatant was analyzed by HPLC. Michaelis–Menten parameters (Vmax and Km) were determined on the basis of the nonlinear regression of the plot of the substrate concentration vs. rate of metabolite formation.
(§1) For both HLMs and UGTs, metabolic kinetic analysis was performed by fitting the data to the Michaelis-Menten model. The Km and Vmax of enzymes were calculated as follows:(3) V=Vmax×[S]/Km+[S], where [S] is the substrate concentration. All results were shown as the mean ± standard error (SE). Differences among different groups were compared using one-way analysis of variance. A p-value < 0.05 was considered statistically significant.

UGT1A1 = target: T1, UGT1A1 (Homo sapiens, UniProt P22309); test: Recombinant UGT reaction screening and enzyme kinetics, UGT1A1; type: in vitro ADME; conditions: recombinant UGT1A1 screening
T1 construct: purchased BD Biosciences (Woburn, MA, USA)
T1 sequence (P22309 26-533): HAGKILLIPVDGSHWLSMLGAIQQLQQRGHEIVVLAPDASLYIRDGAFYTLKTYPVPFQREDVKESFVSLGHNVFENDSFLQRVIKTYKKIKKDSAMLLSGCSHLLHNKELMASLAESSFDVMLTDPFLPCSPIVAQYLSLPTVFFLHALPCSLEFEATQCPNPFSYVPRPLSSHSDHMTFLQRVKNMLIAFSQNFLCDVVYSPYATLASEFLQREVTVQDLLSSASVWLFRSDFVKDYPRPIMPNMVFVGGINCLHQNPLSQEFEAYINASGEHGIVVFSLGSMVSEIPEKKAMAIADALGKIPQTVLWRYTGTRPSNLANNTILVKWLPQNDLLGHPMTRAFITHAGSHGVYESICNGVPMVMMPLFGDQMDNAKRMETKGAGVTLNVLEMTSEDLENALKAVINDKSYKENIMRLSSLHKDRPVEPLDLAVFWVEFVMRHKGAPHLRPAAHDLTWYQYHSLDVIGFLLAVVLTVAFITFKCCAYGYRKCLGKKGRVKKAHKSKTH
Protocol: (§2) UGT reaction screening of tectorigenin and irigenin was conducted using nine commercially available human UGTs (UGT1A1/1A3/1A4/1A6/1A9/2B4/2B7/2B15/2B17). Furthermore, we studied the enzymatic kinetic characteristics of tectorigenin and irigenin using UGT1A1 and UGT1A9. Six concentrations of tectorigenin and irigenin (1, 3, 10, 30, 100, and 300 μM) were incubated in triplicate in order to obtain the enzyme kinetic characteristics of tectorigenin and irigenin glucuronide.
as §1

UGT1A9 = target: T2, UGT1A9 (Homo sapiens, UniProt O60656); test: Recombinant UGT reaction screening and enzyme kinetics, UGT1A9; type: in vitro ADME; conditions: recombinant UGT1A9 screening
T2 construct: purchased BD Biosciences (Woburn, MA, USA)
T2 sequence (O60656 26-530): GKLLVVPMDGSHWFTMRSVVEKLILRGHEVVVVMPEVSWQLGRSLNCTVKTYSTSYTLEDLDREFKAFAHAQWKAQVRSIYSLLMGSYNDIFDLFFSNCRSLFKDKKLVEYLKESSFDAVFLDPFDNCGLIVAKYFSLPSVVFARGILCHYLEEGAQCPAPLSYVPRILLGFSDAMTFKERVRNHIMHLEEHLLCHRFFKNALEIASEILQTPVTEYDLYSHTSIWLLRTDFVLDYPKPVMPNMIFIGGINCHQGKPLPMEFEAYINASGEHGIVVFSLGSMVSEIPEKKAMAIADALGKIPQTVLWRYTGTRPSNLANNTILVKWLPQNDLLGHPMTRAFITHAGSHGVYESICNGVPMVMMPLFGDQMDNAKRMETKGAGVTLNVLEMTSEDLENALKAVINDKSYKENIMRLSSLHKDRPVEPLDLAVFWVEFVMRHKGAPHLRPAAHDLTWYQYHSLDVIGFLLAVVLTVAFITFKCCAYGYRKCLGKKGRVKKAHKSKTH
Protocol: as §2, §1

[2] = Stability experiment under different storage conditions; type: physicochemical; conditions: for Stability in Autosampler for 12 h, RE (%): 4 °C; for Stability in Autosampler for 12 h, RE (%) / Stability in Inactivated Metabolic System for 2 h, RE (%) / Stability −80 °C for 7 Days, RE (%): n = 5; for Stability in Inactivated Metabolic System for 2 h, RE (%): approximately 25 °C
Protocol: In the stability experiment, we evaluated the stability of tectorigenin and irigenin, as well as their metabolites, under different conditions. […] Metabolites (M, M1, and M2) were stable in the inactivated metabolic system for 2 h (held constant at approximately 25 °C) and after storage for 7 days (−80 °C), as well as in the pretreated samples placed in the autosampler for 12 h at 4 °C.

[3] = substrate: COc1cc(-c2coc3cc(O)c(OC)c(O)c3c2=O)cc(O)c1OC; test: Recombinant UGT reaction screening and enzyme kinetics, UGT1A1; type: in vitro ADME, human; conditions: other: irigenin glucuronidation, UGT1A1(M1)
Protocol: as §2, §1

[4] = substrate: COc1c(O)cc2occ(-c3ccc(O)cc3)c(=O)c2c1O; test: as above; type: in vitro ADME, human; conditions: other: tectorigenin glucuronidation (M) by UGT1A1
Protocol: as §2, §1

[5] = substrate: COc1cc(-c2coc3cc(O)c(OC)c(O)c3c2=O)cc(O)c1OC; test: Recombinant UGT reaction screening and enzyme kinetics, UGT1A9; type: in vitro ADME, human; conditions: other: irigenin glucuronidation
Protocol: as §2, §1

[6] = substrate: COc1c(O)cc2occ(-c3ccc(O)cc3)c(=O)c2c1O; test: as above; type: in vitro ADME, human; conditions: other: tectorigenin glucuronidation (M) by UGT1A9
Protocol: as §2, §1

[7] = 100 μM silibinin, 100 μM 1-naphthol

With Oc1cccc2ccccc12 [1-naphthol] the “Effect of UGT inhibitor on production of M2 from irigenin” value (UGTs in HLMs; 100 μM 1-naphthol) was “inhibited” and the “Effect of UGT inhibitor on tectorigenin glucuronidation” value (UGTs in HLMs; [7]) was “significantly inhibited”.

For COc1cc(-c2coc3cc(O)c(OC)c(O)c3c2=O)cc(O)c1OC [Irigenin, 3’,5,7-trihydroxy-4’,5’,6-trimethoxy isoflavone], the “Vmax for M1 formation” value ([1]; metabolite M1) was 6.09 ± 0.27 nmol/min/mg, the Km ([1]; metabolite M1, read-out: Km for M1 formation) was 16.9 ± 2.96 µM and the “Vmax for M2 formation” value ([1]; metabolite M2) was 1.16 ± 0.03 nmol/min/mg. For the same molecule, the Km ([1]; metabolite M2, read-out: Km for M2 formation) was 27.4 ± 2.46 µM, the “Activity in glucuronidation of irigenin, M1 formation” value (UGT1A1) was “highest activity” and the “Activity in glucuronidation of irigenin, M2 formation” value (UGT1A9) was “highest effect”. For the same molecule, the “Stability in pretreated samples in the autosampler” value ([2]; autosampler 12 h at 4 °C) was “stable” and the “RE and RSD values in pretreated samples in the autosampler” value ([2]; autosampler 12 h at 4 °C, printed as below ±5%) was < 5%.

In the case of COc1c(O[C@@H]2O[C@H](C(=O)O)[C@@H](O)[C@H](O)[C@H]2O)cc2occ(-c3ccc(O)cc3)c(=O)c2c1O [M, tectorigenin-7-O-glucuronide], the “Stability in Autosampler for 12 h, RE (%)” value ([2]; High concentration) is reported as −5.18%, the “Stability in Inactivated Metabolic System for 2 h, RE (%)” value ([2]; High concentration) is reported as 0.59% and the “Stability −80 °C for 7 Days, RE (%)” value ([2]; High concentration) is reported as 4.71%. The “Stability in Autosampler for 12 h, RE (%)” value ([2]; Low concentration) was −2.13%, the “Stability in Inactivated Metabolic System for 2 h, RE (%)” value ([2]; Low concentration) was 0.38% and the “Stability −80 °C for 7 Days, RE (%)” value ([2]; Low concentration) was 2.90%. For the same molecule, the “Stability of metabolites” value ([2]; inactivated metabolic system 2 h (approx. 25 °C), 7 days at −80 °C, autosampler 12 h at 4 °C) was “stable”.

For COc1cc(C2Oc3cc([C@H]4Oc5cc(O)cc(O)c5C(=O)[C@@H]4O)ccc3OC2CO)ccc1O (some centres unmarked) [Silibinin], the “Effect of UGT inhibitor on tectorigenin glucuronidation” value (UGTs in HLMs; [7]) was “significantly inhibited” and the “Effect of UGT inhibitor on production of M1 from irigenin” value (UGTs in HLMs; 100 μM silibinin) was “significantly inhibited”.

B1: UGT1A1 (Homo sapiens) (protein)
chain: HAGKILLIPVDGSHWLSMLGAIQQLQQRGHEIVVLAPDASLYIRDGAFYTLKTYPVPFQREDVKESFVSLGHNVFENDSFLQRVIKTYKKIKKDSAMLLSGCSHLLHNKELMASLAESSFDVMLTDPFLPCSPIVAQYLSLPTVFFLHALPCSLEFEATQCPNPFSYVPRPLSSHSDHMTFLQRVKNMLIAFSQNFLCDVVYSPYATLASEFLQREVTVQDLLSSASVWLFRSDFVKDYPRPIMPNMVFVGGINCLHQNPLSQEFEAYINASGEHGIVVFSLGSMVSEIPEKKAMAIADALGKIPQTVLWRYTGTRPSNLANNTILVKWLPQNDLLGHPMTRAFITHAGSHGVYESICNGVPMVMMPLFGDQMDNAKRMETKGAGVTLNVLEMTSEDLENALKAVINDKSYKENIMRLSSLHKDRPVEPLDLAVFWVEFVMRHKGAPHLRPAAHDLTWYQYHSLDVIGFLLAVVLTVAFITFKCCAYGYRKCLGKKGRVKKAHKSKTH
notes: purchased BD Biosciences (Woburn, MA, USA)
With B1 the Km [3] was 20.86 ± 2.04 µM, the Vmax [3] was 0.00522 µmol/min/mg and the Km [4] was 4.064e-05 ± 5.56e-06 M. The Vmax [4] was 0.00901 µmol/min/mg.

B2: UGT1A9 (Homo sapiens) (protein)
chain: GKLLVVPMDGSHWFTMRSVVEKLILRGHEVVVVMPEVSWQLGRSLNCTVKTYSTSYTLEDLDREFKAFAHAQWKAQVRSIYSLLMGSYNDIFDLFFSNCRSLFKDKKLVEYLKESSFDAVFLDPFDNCGLIVAKYFSLPSVVFARGILCHYLEEGAQCPAPLSYVPRILLGFSDAMTFKERVRNHIMHLEEHLLCHRFFKNALEIASEILQTPVTEYDLYSHTSIWLLRTDFVLDYPKPVMPNMIFIGGINCHQGKPLPMEFEAYINASGEHGIVVFSLGSMVSEIPEKKAMAIADALGKIPQTVLWRYTGTRPSNLANNTILVKWLPQNDLLGHPMTRAFITHAGSHGVYESICNGVPMVMMPLFGDQMDNAKRMETKGAGVTLNVLEMTSEDLENALKAVINDKSYKENIMRLSSLHKDRPVEPLDLAVFWVEFVMRHKGAPHLRPAAHDLTWYQYHSLDVIGFLLAVVLTVAFITFKCCAYGYRKCLGKKGRVKKAHKSKTH
notes: as for B1
In the case of B2, the Km ([5]; UGT1A9(M1)) is reported as 73.88 ± 4.04 µM, the Vmax ([5]; UGT1A9(M1)) is reported as 0.00045 µmol/min/mg and the Km ([5]; UGT1A9(M2)) is reported as 25.04 ± 2.37 µM. For the same molecule, the Vmax ([5]; UGT1A9(M2)) was 0.00456 µmol/min/mg, the Km [6] was 1.837e-05 ± 1.16e-06 M and the Vmax [6] was 0.00349 µmol/min/mg.

Reference: article PMC9268515, “UGT1A1 and UGT1A9 Are Responsible for Phase II Metabolism of Tectorigenin and Irigenin In Vitro” (Molecules, 2022)
